The values below are quoted from earlier work in patent US20030211177A1, “Method and composition for treatment and prevention of alopecia” (priority 2003, published 2003).

The series relates to patients' hair (alopecia). The settings on record: Propecia literature.

Structures are written as SMILES.

Regarding `CC(C)(C)NC(=O)[C@H]1CC[C@H]2[C@@H]3CC[C@H]4NC(=O)C=C[C@]4(C)[C@H]3CC[C@]12C` [Propecia ®, finasteride], the “Excellent Improvement (percent of subjects)” value is reported as 0%, the “Moderate Improvement (percent of subjects)” value is 4%, the “No Improvement (percent of subjects)” value is recorded as 62% and the “Slight Improvement (percent of subjects)” value is 34%.
